# Data as given in patent publication US20040023884A1, “Biologically active peptides from functional domains of bactericidal/permeability-increasing protein and uses thereof” (priority 1993, published 2004).
# Bridge positions count the residues as written; N and C are the ends. Square brackets hold non-standard residues; d marks the D form. Ends that are not written are not given here. Peptide text beside a SMILES is read from it. 1Nal = N[C@@H](Cc1cccc2ccccc12)C(=O)O
# Columns and labels:
# [1] = tested on: rough mutant E. coli J5 bacteria; assay: Radial diffusion bactericidal assay, E. coli J5; type: cell-based; details: radial diffusion; for pmol added to well to achieve a 30 mm^2 bactericidal zone, E. coli J5: PROBIT analysis, E. coli J5 (rough); for bactericidal activity (in words): E. coli J5
# In short: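 Log-phase bacteria, washed in 10 mM sodium phosphate pH 7.4, were seeded at 4×10^6 CFU/mL in underlayer agarose. BPI fragments (5 or 10 μL) went into 3 mm wells for 3 h at 37° C., then overlayer agarose was added. After overnight 37° C. incubation, clearing zones were measured by micrometer.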
# [2] = 3H-heparin binding assay (affinity and capacity); details: for Heparin Capacity: heparin bound at saturation; for Kd: read-out: Heparin Affinity
# In short: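 Peptide fragments were bound to PVDF-membrane wells and incubated with 3H-heparin in blocking buffer for 1 h at 4 °C. After washing, bound radioactivity was quantified by liquid scintillation counting, with BSA background subtracted; rBPI23 served as positive control.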
# [3] = tested on: E. coli 0111:B4 (smooth) bacteria; assay: Radial diffusion bactericidal assay, E. coli 0111:B4; type: cell-based; details: radial diffusion; PROBIT analysis; E. coli O111:B4 (smooth)
# [4] = tested on: Staphylococcus aureus; assay: Radial diffusion bactericidal assay, Staphylococcus aureus; type: cell-based; details: radial diffusion; PROBIT analysis; S. aureus
# [5] = tested on: RAW 264.7 cells; assay: LPS neutralization cellular proliferation assay, RAW 264.7 cells; type: cell-based, mouse
# Protocol: In this assay, mouse RAW 264.7 cells (ATCC Accession No. T1B71), maintained in RPMI 1640 media (GIBCO), supplemented with 10 mM HEPES buffer (pH 7.4), 2 mM L-glutamine, penicillin (100U/mL), streptomcin (100 μg/mL), 0.075% sodium bicarbonate, […] 2-mercaptoethanol and 10% fetal bovine serum (Hyclone, Inc., Logan, Utah), were first induced by incubation in the presence of 50U/mL recombinant mouse y-interferon (Genzyme, Cambridge, Mass.) for 24 h prior to assay. Induced cells were then mechanically collected and centrifuged at 500×g at 4° C. and then resuspended in 50 mL RPMI 1640 media (without supplements), re-centrifuged and again resuspended in RPMI 1640 media (without supplements). The cells were counted and their concentration adjusted to 2×10^5 cells/mL and 100 μL aliquots were added to each well of a 96-well microtitre plate. The cells were then incubated for about 15 hours with E. coli O113 LPS (Control Standard. Assoc. of Cape Cod. Woods Hole, Mass.), which was added in 100 μL/well aliquots at a concentration of […] in serum-free RPMI 1640 media (this concentration being the result of titration experiments in which LPS concentration was varied between 50 pg/mL and 100 ng/mL). This incubation was performed in the absence or presence of BPI functional domain peptides in varying concentrations between 25 ng/mL and 50 μg/mL. Recombinant human BPI was used as a positive control at a concentration of 1 μg/mL. Cell proliferation was quantitatively measured by the addition of 1 μCi/well [^3H]-thymidine 5 hours after the time of initiation of the assay. After the 15-hour incubation, labeled cells were harvested onto glass fiber filters with a cell harvester (Inotech Biosystems, EQ-384, Sample Processing and Filter Counting System, Lansing, Mich.).
# [6] = tested on: Candida albicans; type: cell-based
Compound,"pmol added to well to achieve a 30 mm^2 bactericidal zone, E. coli J5 [1]",Heparin Capacity [2] [ng],Kd [2] [nM],"pmol added to well to achieve a 30 mm^2 bactericidal zone, E. coli O111:B4 [3]","pmol added to well to achieve a 30 mm^2 bactericidal zone, S. aureus [4]",EC50 (peptide concentration at which the growth inhibitory effect of LPS was reversed by 50%) [5] [µg/mL],IC50 (peptide concentration at which RAW cell growth was inhibited by 50%) [5] [µg/mL],behaviour in the RAW 264.7 proliferation assay (in words) [5],bactericidal activity (in words) [1],heparin binding capacity (in words) [2],MIC C. alb [6] [µg/mL]
CC[C@H](C)[C@H](N)C(=O)N[C@@H](CCCCN)C(=O)N[C@H](C(=O)N[C@@H](CO)C(=O)NCC(=O)N[C@@H](CCCCN)C(=O)N[C@@H](Cc1cccc2ccccc12)C(=O)N[C@@H](CCCCN)C(=O)N[C@@H](C)C(=O)N[C@@H](CCC(N)=O)C(=O)N[C@@H](Cc1ccccc1)C(=O)N[C@@H](CCCNC(=N)N)C(=O)N[C@@H](Cc1ccccc1)C(=O)N[C@@H](CC(C)C)C(=O)N[C@@H](CCCCN)C(=O)N[C@@H](CCCCN)C(=O)N[C@@H](CO)C(=O)N[C@@H](CCCCN)C(=O)N[C@H](C(=O)NCC(=O)N[C@@H](Cc1c[nH]c2ccccc12)C(=O)N[C@@H](CC(C)C)C(=O)N[C@H](C(=O)N[C@@H](Cc1ccccc1)C(=O)N[C@@H](CC(C)C)C(=O)N[C@@H](Cc1ccccc1)C(=O)N[C@@H](Cc1c[nH]cn1)C(=O)N[C@@H](CCCCN)C(=O)N[C@@H](CCCCN)C(=O)O)[C@@H](C)CC)C(C)C)[C@@H](C)CC [BPI.98] (H-IKISGK[1Nal]KAQFRFLKKSKVGWLIFLFHKK-OH),"4,384.14 pmol",1678.4,683,"63,709.98 pmol",b (no detectable activity up to 5 μg/well),0.16 ± 0.08,16.5 ± 1.9,–,–,–,–
IKISGKWKAFKRFLK [BPI.81],283.84 pmol,318.4,335,"3,018.90 pmol","9,477.20 pmol",–,14 ± 0.2,unable to reverse the growth inhibitory effect of LPS,–,–,–
KSKVGWLIQLFHKK [BPI.13p],–,–,–,–,–,2.0 ± 0.3,>50,–,–,–,–
KWKAAARFLKKWKAQKRFLK [BPI.46],186.69 pmol,321.1,1070,"2,970.26 pmol","3,810,752.30 pmol",1.9 ± 1.9,18.8 ± 0.8,–,highly bactericidal,extremely high heparin capacity,–
"CC[C@H](C)[C@H](N)C(=O)N[C@@H](CCCCN)C(=O)N[C@H](C(=O)N[C@@H](CO)C(=O)NCC(=O)N[C@@H](CCCCN)C(=O)N[C@@H](Cc1c[nH]c2ccccc12)C(=O)N[C@@H](CCCCN)C(=O)N[C@@H](C)C(=O)N[C@@H](CCC(N)=O)C(=O)N[C@@H](CCCCN)C(=O)N[C@@H](CCCNC(=N)N)C(=O)N[C@@H](Cc1ccccc1)C(=O)N[C@@H](CC(C)C)C(=O)N[C@@H](CCCCN)C(=O)NCCCC[C@H](NC(=O)[C@H](CCCCN)NC(=O)[C@H](CC(C)C)NC(=O)[C@H](Cc1ccccc1)NC(=O)[C@H](CCCNC(=N)N)NC(=O)[C@H](CCCCN)NC(=O)[C@H](CCC(N)=O)NC(=O)[C@H](C)NC(=O)[C@H](CCCCN)NC(=O)[C@H](Cc1c[nH]c2ccccc12)NC(=O)[C@H](CCCCN)NC(=O)CNC(=O)[C@H](CO)NC(=O)[C@@H](NC(=O)[C@H](CCCCN)NC(=O)[C@@H](N)[C@@H](C)CC)[C@@H](C)CC)C(=O)NCCCC[C@H](NC(=O)[C@H](CCCCNC(=O)[C@H](CCCCN)NC(=O)[C@H](CC(C)C)NC(=O)[C@H](Cc1ccccc1)NC(=O)[C@H](CCCNC(=N)N)NC(=O)[C@H](CCCCN)NC(=O)[C@H](CCC(N)=O)NC(=O)[C@H](C)NC(=O)[C@H](CCCCN)NC(=O)[C@H](Cc1c[nH]c2ccccc12)NC(=O)[C@H](CCCCN)NC(=O)CNC(=O)[C@H](CO)NC(=O)[C@@H](NC(=O)[C@H](CCCCN)NC(=O)[C@@H](N)[C@@H](C)CC)[C@@H](C)CC)NC(=O)[C@H](CCCCN)NC(=O)[C@H](CC(C)C)NC(=O)[C@H](Cc1ccccc1)NC(=O)[C@H](CCCNC(=N)N)NC(=O)[C@H](CCCCN)NC(=O)[C@H](CCC(N)=O)NC(=O)[C@H](C)NC(=O)[C@H](CCCCN)NC(=O)[C@H](Cc1c[nH]c2ccccc12)NC(=O)[C@H](CCCCN)NC(=O)CNC(=O)[C@H](CO)NC(=O)[C@@H](NC(=O)[C@H](CCCCN)NC(=O)[C@@H](N)[C@@H](C)CC)[C@@H](C)CC)C(=O)NCCC(=O)O)[C@@H](C)CC [MAP.1, β-alanyl-Nα,Nε-substituted-{Nα,Nε(BPI.2)lysyl}lysine]",105.71 pmol,459.1,937,552.79 pmol,"1,382.60 pmol",0.45 ± 0.1,–,–,highly bactericidal,extremely high heparin capacity,–
CC(C)C[C@H](NC(=O)[C@H](Cc1ccccc1)NC(=O)[C@H](CCCNC(=N)N)NC(=O)[C@H](Cc1cccc2ccccc12)NC(=O)[C@H](CCC(N)=O)NC(=O)[C@H](C)NC(=O)[C@H](CCCCN)NC(=O)[C@H](Cc1cccc2ccccc12)NC(=O)[C@H](CCCCN)NC(=O)[C@H](CCCCN)NC(=O)[C@H](CC(C)C)NC(=O)[C@H](Cc1ccccc1)NC(=O)[C@H](CCCNC(=N)N)NC(=O)[C@H](Cc1cccc2ccccc12)NC(=O)[C@H](CCC(N)=O)NC(=O)[C@H](C)NC(=O)[C@H](CCCCN)NC(=O)[C@H](Cc1cccc2ccccc12)NC(=O)[C@@H](N)CCCCN)C(=O)N[C@@H](CCCCN)C(N)=O [BPI.160] (H-K[1Nal]KAQ[1Nal]RFLKK[1Nal]KAQ[1Nal]RFLK-NH2; N-terminus and C-terminus assumed),288.78 pmol,–,–,"2,967.57 pmol","352,608.37 pmol",–,–,–,–,–,>100.00
"CC[C@H](C)[C@H](NC(=O)[C@H](CC(C)C)NC(=O)[C@H](Cc1cccc2ccccc12)NC(=O)CNC(=O)[C@@H](NC(=O)[C@H](CCCCN)NC(=O)[C@H](CO)NC(=O)[C@@H](N)CCCCN)C(C)C)C(=O)N[C@@H](CCC(N)=O)C(=O)N[C@@H](CC(C)C)C(=O)N[C@@H](Cc1ccccc1)C(=O)N[C@@H](Cc1cccc2ccccc12)C(=O)N[C@@H](CCCCN)C(=O)N[C@@H](CCCCN)C(=O)O [BPI.148, KSKVGAβ-(1-naphthyl)LIQLFAβ-(1-naphthyl)KK] (H-KSKVG[1Nal]LIQLF[1Nal]KK-OH; N-terminus and C-terminus assumed)","4,206.57 pmol",–,–,b (no detectable activity up to 5 μg/well),b (no detectable activity up to 5 μg/well),–,–,–,–,–,50.00
KWKAQKRF [BPI.167],"25,489.99 pmol",–,–,b (no detectable activity up to 5 μg/well),b (no detectable activity up to 5 μg/well),–,–,–,–,–,>50.00
C[C@@H]1NC(=O)[C@H](CCCCN)NC(=O)[C@H](Cc2c[nH]c3ccccc23)NC(=O)[C@H](CCCCN)NC(=O)[C@@H](N)CSSC[C@@H](C(N)=O)NC(=O)[C@H](Cc2ccccc2)NC(=O)[C@H](CCCNC(=N)N)NC(=O)[C@H](CCCCN)NC(=O)[C@H](CCC(N)=O)NC1=O [BPI.169] (H-CKWKAQKRFC-NH2; disulfide 1-10; N-terminus and C-terminus assumed),"4,893.83 pmol",–,–,"36,025.95 pmol","17,281.61 pmol",–,–,–,–,–,>100.00
